Source: patent US8680139B2 (Progenra, priority 2009, dated 2014)

Target: T1, USP7 (Homo sapiens, UniProt Q93009)
T1 construct: full length human USP7 protein; made in house
Test: USP7, Ub-PLA2 assay
Assay type: biochemical
Settings: for EC50: Ub-PLA2 / NBD C6-HPC fluorescence, 30 minute preincubation, read-out: EC50 for inhibition of USP7
Method in brief: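 Activity read as fluorescence in a Ub-PLA2 format, with percent inhibition calculated within each plate against DMSO (uninhibited) and NEM (background) wells. Vehicle was 100% DMSO.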

T1 sequence (Q93009 whole entry): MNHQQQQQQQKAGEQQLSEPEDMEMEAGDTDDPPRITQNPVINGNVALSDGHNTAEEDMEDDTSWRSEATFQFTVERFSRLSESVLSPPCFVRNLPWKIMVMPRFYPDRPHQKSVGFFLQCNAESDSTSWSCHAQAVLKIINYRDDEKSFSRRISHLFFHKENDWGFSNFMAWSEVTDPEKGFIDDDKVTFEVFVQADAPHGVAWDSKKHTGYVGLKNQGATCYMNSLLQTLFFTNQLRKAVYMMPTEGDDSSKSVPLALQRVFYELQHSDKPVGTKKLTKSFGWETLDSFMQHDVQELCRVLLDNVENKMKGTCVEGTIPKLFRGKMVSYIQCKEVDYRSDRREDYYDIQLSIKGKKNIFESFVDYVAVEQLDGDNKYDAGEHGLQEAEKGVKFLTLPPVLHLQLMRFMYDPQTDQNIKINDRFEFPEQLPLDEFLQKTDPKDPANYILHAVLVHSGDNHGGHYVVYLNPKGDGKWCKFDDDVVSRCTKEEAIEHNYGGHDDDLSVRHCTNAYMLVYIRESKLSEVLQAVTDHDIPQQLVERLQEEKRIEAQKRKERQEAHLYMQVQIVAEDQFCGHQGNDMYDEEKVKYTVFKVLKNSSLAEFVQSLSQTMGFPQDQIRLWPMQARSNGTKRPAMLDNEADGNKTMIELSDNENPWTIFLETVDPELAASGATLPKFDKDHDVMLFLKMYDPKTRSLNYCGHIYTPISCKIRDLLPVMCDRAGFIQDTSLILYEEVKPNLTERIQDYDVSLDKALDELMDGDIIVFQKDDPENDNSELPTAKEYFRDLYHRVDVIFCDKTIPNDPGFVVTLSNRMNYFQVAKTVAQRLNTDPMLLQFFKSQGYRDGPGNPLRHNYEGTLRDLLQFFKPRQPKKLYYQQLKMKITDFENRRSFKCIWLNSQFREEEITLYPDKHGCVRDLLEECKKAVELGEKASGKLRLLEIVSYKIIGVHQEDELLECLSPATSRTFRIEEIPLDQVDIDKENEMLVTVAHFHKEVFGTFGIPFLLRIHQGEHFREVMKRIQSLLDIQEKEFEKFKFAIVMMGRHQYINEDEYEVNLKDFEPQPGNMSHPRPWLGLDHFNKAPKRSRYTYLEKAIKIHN

EC50	USP7 inhibition, result in words (USP7, Ub-PLA2 assay)	Structure (SMILES)
≤ 1000 nM		O=C(NC1CC2CCC1C2)c1cc([N+](=O)[O-])c(Sc2c(Cl)cncc2Cl)s1 (stereo not shown) [Example 177, N-(bicyclo[2.2.1]heptan-2-yl)-5-((3,5-dichloropyridin-4-yl)thio)-4-nitrothiophene-2-carboxamide]
≤ 1000 nM		CSc1ccc(NC(=O)c2cc([N+](=O)[O-])c(Sc3c(Cl)cncc3Cl)s2)cc1 [Example 174, 5-((3,5-dichloropyridin-4-yl)thio)-N-(4-(methylthio)phenyl)-4-nitrothiophene-2-carboxamide]
≤ 1000 nM	Particularly good results	N=C(N)Nc1ccc(NC(=O)c2cc([N+](=O)[O-])c(Sc3c(Cl)cncc3Cl)s2)cc1 [Example 236, 5-((3,5-dichloropyridin-4-yl)thio)-N-(4-guanidinophenyl)-4-nitrothiophene-2-carboxamide]
1000 to 10000 nM		COc1cc(CNC(=O)c2cc([N+](=O)[O-])c(Sc3c(Cl)cncc3Cl)s2)cc(OC)c1 [Example 69, 5-((3,5-dichloropyridin-4-yl)thio)-N-(3,5-dimethoxybenzyl)-4-nitrothiophene-2-carboxamide]
≤ 1000 nM		O=C(Nc1ccc(F)c(Cl)c1)c1cc([N+](=O)[O-])c(Sc2c(Cl)cncc2Cl)s1 [Example 137, N-(3-chloro-4-fluorophenyl)-5-((3,5-dichloropyridin-4-yl)thio)-4-nitrothiophene-2-carboxamide]
≤ 1000 nM		O=C(NC1CC1)c1cc([N+](=O)[O-])c(Sc2c(Cl)cncc2Cl)s1 [Example 124, N-cyclopropyl-5-((3,5-dichloropyridin-4-yl)thio)-4-nitrothiophene-2-carboxamide]
1000 to 10000 nM		CCN1CCC(CNC(=O)c2cc([N+](=O)[O-])c(Sc3c(Cl)cncc3Cl)s2)C1 (stereo not shown) [Example 91, 5-((3,5-dichloropyridin-4-yl)thio)-N-((1-ethylpyrrolidin-3-yl)methyl)-4-nitrothiophene-2-carboxamide]
1000 to 10000 nM		CN1CCC(NC(=O)c2cc([N+](=O)[O-])c(Sc3c(Cl)cccc3Cl)s2)CC1 [Example 269, 5-((2,6-dichlorophenyl)thio)-N-(1-methylpiperidin-4-yl)-4-nitrothiophene-2-carboxamide]
1000 to 10000 nM		CN1CCC(NC(=O)c2cc([N+](=O)[O-])c(Sc3c(Cl)cncc3Cl)s2)C1 (stereo not shown) [Example 94, 5-((3,5-dichloropyridin-4-yl)thio)-N-(1-methylpyrrolidin-3-yl)-4-nitrothiophene-2-carboxamide]
1000 to 10000 nM		CN1CCC(NC(=O)c2sc(Sc3c(Cl)cncc3Cl)c(C#N)c2-c2ccccc2)CC1 [Example 247, 4-cyano-5-((3,5-dichloropyridin-4-yl)thio)-N-(1-methylpiperidin-4-yl)-3-phenylthiophene-2-carboxamide]
1000 to 10000 nM		COC(=O)c1cc([N+](=O)[O-])c(Sc2c(F)cncc2F)s1 [Example 255, Methyl 5-((3,5-difluoropyridin-4-yl)thio)-4-nitrothiophene-2-carboxylate]
≤ 1000 nM		O=C(Nc1cccc(Br)c1)c1cc([N+](=O)[O-])c(Sc2c(Cl)cncc2Cl)s1 [Example 133, N-(3-bromophenyl)-5-((3,5-dichloropyridin-4-yl)thio)-4-nitrothiophene-2-carboxamide]
≤ 1000 nM		O=C(Nc1cc(F)ccc1F)c1cc([N+](=O)[O-])c(Sc2c(Cl)cncc2Cl)s1 [Example 159, 5-((3,5-dichloropyridin-4-yl)thio)-N-(2,5-difluorophenyl)-4-nitrothiophene-2-carboxamide]
≤ 1000 nM		O=C(NCCCN1CCCC1)c1cc([N+](=O)[O-])c(Sc2c(Cl)cncc2Cl)s1 [Example 191, 5-((3,5-dichloropyridin-4-yl)thio)-4-nitro-N-(3-(pyrrolidin-1-yl)propyl)thiophene-2-carboxamide]
1000 to 10000 nM		O=C(NCC(O)CN1CCCCC1)c1cc([N+](=O)[O-])c(Sc2c(Cl)cncc2Cl)s1 (stereo not shown) [Example 241, 5-((3,5-dichloropyridin-4-yl)thio)-N-(2-hydroxy-3-(piperidin-1-yl)propyl)-4-nitrothiophene-2-carboxamide]
